Read-outs that look alike come from different tables or passages of the source.
Key:
E. coli mL308 225 = assay: In Vitro Anti-Bacterial Activity Assay (MIC), gram negative; format: cell-based; conditions: for MIC: Escherichia coli, ML308225, 18 h
S. aureus RN450 = assay: In Vitro Anti-Bacterial Activity Assay (MIC), gram positive; format: cell-based; conditions: for MIC: Staphylococcus aureus, RN450, 18 h
[1] = gram negative bacteria, read-out: Antibiotic Activity Gram − (MIC)
[2] = gram positive bacteria, read-out: Antibiotic Activity Gram + (MIC)
[3] = MIC class, Table 3, read-out: Antibiotic Activity Gram −
[4] = MIC class, Table 3, read-out: Antibiotic Activity Gram +
[5] = MIC class, Table 3 (Continued), read-out: Gram− activity
[6] = MIC class, Table 3 (Continued), read-out: Gram+ activity

Row | Structure (SMILES) | MIC (E. coli mL308 225; [1]) | MIC (S. aureus RN450; [2]) | MIC (E. coli mL308 225; [3]) | MIC (S. aureus RN450; [4]) | further results
1 | CN(C)c1cc(NCc2ccc(C#N)cc2)c(O)c2c1C[C@H]1C[C@H]3[C@H](N(C)C)C(O)=C(C(N)=O)C(=O)[C@@]3(O)C(O)=C1C2=O | > 4 µg/mL | > 4 µg/mL |  |  | 
2 | CN(C)[C@@H]1C(O)=C(C(N)=O)C(=O)[C@@]2(O)C(O)=C3C(=O)c4c(O)ccc(-c5ccc(F)cc5F)c4C[C@H]3C[C@@H]12 [AB] |  |  | > 4 µg/mL | < 4 µg/mL | 
3 | CCN(CC)c1cc(CN2CCC(F)CC2)c(O)c2c1C[C@H]1C[C@H]3[C@H](N(C)C)C(O)=C(C(N)=O)C(=O)[C@@]3(O)C(O)=C1C2=O | < 4 µg/mL | < 4 µg/mL |  |  | 
4 | CN(C)[C@@H]1C(O)=C(C(N)=O)C(=O)[C@@]2(O)C(O)=C3C(=O)c4c(O)ccc(-c5ccc(C(=O)Cl)c6ccccc56)c4C[C@H]3C[C@@H]12 | > 4 µg/mL | < 4 µg/mL |  |  | 
5 | COc1ccc(-c2ccc3c(c2O)C(=O)C2=C(O)[C@]4(O)C(=O)C(C(N)=O)=C(O)[C@@H](N(C)C)[C@@H]4[C@@H](O)[C@@H]2[C@H]3C)cc1CC1CCCC1 | > 4 µg/mL | > 4 µg/mL |  |  | 
6 | CO/N=C(\C)c1ccc(O)c2c1C[C@H]1C[C@H]3[C@H](N(C)C)C(O)=C(C(N)=O)C(=O)[C@@]3(O)C(O)=C1C2=O [EU] |  |  | < 4 µg/mL | < 4 µg/mL | 
7 | CC(=O)N(Cc1cc(N(C)C)c2c(c1O)C(=O)C1=C(O)[C@]3(O)C(=O)C(C(N)=O)=C(O)[C@@H](N(C)C)[C@@H]3C[C@@H]1C2)CC(C)(C)C | > 4 µg/mL | > 4 µg/mL |  |  | 
8 | CN(C)[C@@H]1C(O)=C(C(N)=O)C(=O)[C@@]2(O)C(O)=C3C(=O)c4c(O)ccc(Cl)c4[C@](C)(O)[C@H]3C[C@@H]12 | > 4 µg/mL | < 4 µg/mL |  |  | 
9 | Cc1cc(C)cc(-c2cc(N(C)C)c3c(c2O)C(=O)C2=C(O)[C@]4(O)C(=O)C(C(N)=O)=C(O)[C@@H](N(C)C)[C@@H]4C[C@@H]2C3)c1 |  |  |  |  | MIC (E. coli mL308 225; [5]): < 4 µg/mL; MIC (S. aureus RN450; [6]): < 4 µg/mL
10 | CN(C)CC#Cc1cc(C(C)(C)C)c(O)c2c1C[C@H]1C[C@H]3[C@H](N(C)C)C(O)=C(C(N)=O)C(=O)[C@@]3(O)C(O)=C1C2=O [GD] |  |  | > 4 µg/mL | < 4 µg/mL | 
11 | COCCOC(=O)Nc1ccc(-c2ccc(O)c3c2C[C@H]2C[C@H]4[C@H](N(C)C)C(O)=C(C(N)=O)C(=O)[C@@]4(O)C(O)=C2C3=O)cc1 [HH] |  |  | > 4 µg/mL | < 4 µg/mL | 
12 | CN(C)c1cc(NC(=O)Oc2ccc(O)cc2)c(O)c2c1C[C@H]1C[C@H]3[C@H](N(C)C)C(O)=C(C(N)=O)C(=O)[C@@]3(O)C(O)=C1C2=O |  |  |  |  | MIC (E. coli mL308 225; read-out: Antibiotic Activity Gram − (MIC)): > 4 µg/mL; MIC (S. aureus RN450; read-out: Antibiotic Activity Gram + (MIC)): > 4 µg/mL
13 | CCCCCc1ccc(O)c2c1C[C@H]1C[C@H]3[C@H](N(C)C)C(O)=C(C(N)=O)C(=O)[C@@]3(O)C(O)=C1C2=O [DG] |  |  | > 4 µg/mL | < 4 µg/mL | 
14 | CN(C)[C@@H]1C(O)=C(C(N)=O)C(=O)[C@@]2(O)C(O)=C3C(=O)c4c(O)ccc(/C=C/c5ccc(Br)cc5)c4C[C@H]3C[C@@H]12 [BL] |  |  | > 4 µg/mL | < 4 µg/mL | 
15 | CN(C)[C@@H]1C(O)=C(C(N)=O)C(=O)[C@@]2(O)C(O)=C3C(=O)c4c(O)ccc(C(=O)O)c4C[C@H]3C[C@@H]12 | > 4 µg/mL | > 4 µg/mL |  |  | 
16 | CCN(CC)c1ccc(O)c2c1C[C@H]1C[C@H]3[C@H](N(C)C)C(O)=C(C(N)=O)C(=O)[C@@]3(O)C(O)=C1C2=O | < 4 µg/mL | < 4 µg/mL |  |  | 
17 | COC(=O)O[C@@]12C(=O)C(C(N)=O)=C(O)[C@@H](N(C)C)[C@@H]1C[C@@H]1Cc3cccc(O)c3C(=O)C1=C2O | > 4 µg/mL | > 4 µg/mL |  |  | 
18 | CCCCCC(=O)O[C@H]1[C@H]2C(=C(O)[C@]3(O)C(=O)C(C(N)=O)=C(O)[C@@H](N(C)C)[C@H]13)C(=O)c1c(O)cccc1[C@@H]2C [L] |  |  | > 4 µg/mL | < 4 µg/mL | 
19 | CCCCOC(=O)C#Cc1cc(N(C)C)c2c(c1O)C(=O)C1=C(O)[C@]3(O)C(=O)C(C(N)=O)=C(O)[C@@H](N(C)C)[C@@H]3C[C@@H]1C2 [DL] |  |  | > 4 µg/mL | > 4 µg/mL | 
20 | CN1CCC(NCc2cc(N(C)C)c3c(c2O)C(=O)C2=C(O)[C@]4(O)C(=O)C(C(N)=O)=C(O)[C@@H](N(C)C)[C@@H]4C[C@@H]2C3)CC1 | > 4 µg/mL | > 4 µg/mL |  |  | 

Row | Structure (SMILES) | MIC (E. coli mL308 225; [1]) | MIC (S. aureus RN450; [2]) | MIC (E. coli mL308 225; [3]) | MIC (S. aureus RN450; [4]) | further results
21 | COC(=O)C1CCN(Cc2ccc(-c3ccc(O)c4c3C[C@H]3C[C@H]5[C@H](N(C)C)C(O)=C(C(N)=O)C(=O)[C@@]5(O)C(O)=C3C4=O)cc2)CC1 | < 4 µg/mL | < 4 µg/mL |  |  | 
22 | COC(=O)CCC(=O)Nc1ccc(-c2ccc(O)c3c2C[C@H]2C[C@H]4[C@H](N(C)C)C(O)=C(C(N)=O)C(=O)[C@@]4(O)C(O)=C2C3=O)cc1 | > 4 µg/mL | < 4 µg/mL |  |  | 
23 | CCc1cc(NCC(C)C)c(O)c2c1C[C@H]1C[C@H]3[C@H](N(C)C)C(O)=C(C(N)=O)C(=O)[C@@]3(O)C(O)=C1C2=O | < 4 µg/mL | < 4 µg/mL |  |  | 
24 | CN(C)c1cc(CNCC(=O)C(C)(C)C)c(O)c2c1C[C@H]1C[C@H]3[C@H](N(C)C)C(O)=C(C(N)=O)C(=O)[C@@]3(O)C(O)=C1C2=O | > 4 µg/mL | < 4 µg/mL |  |  | 
25 | CN(C)[C@@H]1C(O)=C(C(N)=O)C(=O)[C@@]2(O)C(O)=C3C(=O)c4c(O)ccc(C(=O)CN5CCCCC5)c4C[C@H]3C[C@@H]12 | < 4 µg/mL | < 4 µg/mL |  |  | 
26 | CN(C)c1cc(NCc2ccccc2OC(C)(C)C)c(O)c2c1C[C@H]1C[C@H]3[C@H](N(C)C)C(O)=C(C(N)=O)C(=O)[C@@]3(O)C(O)=C1C2=O | > 4 µg/mL | < 4 µg/mL |  |  | 
27 | CN(C)[C@@H]1C(O)=C(C(N)=O)C(=O)[C@@]2(O)C(O)=C3C(=O)c4c(O)ccc(C#Cc5ccc(N(O)O)cc5)c4C[C@H]3C[C@@H]12 |  |  |  |  | MIC (E. coli mL308 225; [5]): < 4 µg/mL; MIC (S. aureus RN450; [6]): < 4 µg/mL
28 | CN(C)c1cc(C(=O)N2CCOCC2)c(O)c2c1C[C@H]1C[C@H]3[C@H](N(C)C)C(O)=C(C(N)=O)C(=O)[C@@]3(O)C(O)=C1C2=O | > 4 µg/mL | > 4 µg/mL |  |  | 
29 | CC(C)CNCc1cc(N(C)C)c2c(c1O)C(=O)C1=C(O)[C@]3(O)C(=O)C(C(N)=O)=C(O)[C@@H](N(C)C)[C@@H]3C[C@@H]1C2 [drawing 3497] |  |  |  |  | Antibiotic Activity Gram − (MIC) (E. coli mL308 225; gram negative bacteria): * (compounds with an MIC of greater than 4 μg/ml are indicated with *); Antibiotic Activity Gram + (MIC) (S. aureus RN450; gram positive bacteria): ** (compounds with MIC less than or equal to 4 μg/ml are indicated with **)
30 | CN(C)c1cc(CN2CCC3(CCCC3)CC2)c(O)c2c1C[C@H]1C[C@H]3[C@H](N(C)C)C(O)=C(C(N)=O)C(=O)[C@@]3(O)C(O)=C1C2=O | < 4 µg/mL | < 4 µg/mL |  |  | 
31 | Cc1csc(-c2ccc(O)c3c2C[C@H]2C[C@H]4[C@H](N(C)C)C(O)=C(C(N)=O)C(=O)[C@@]4(O)C(O)=C2C3=O)c1 |  |  |  |  | MIC (E. coli mL308 225; [5]): < 4 µg/mL; MIC (S. aureus RN450; [6]): < 4 µg/mL
32 | CCCCc1ccc(-c2cc(N(C)C)c3c(c2O)C(=O)C2=C(O)[C@]4(O)C(=O)C(C(N)=O)=C(O)[C@@H](N(C)C)[C@@H]4C[C@@H]2C3)cc1 [EI] |  |  | > 4 µg/mL | > 4 µg/mL | 
33 | COc1ccc(-c2ccc(O)c3c2C[C@H]2C[C@H]4[C@H](N(C)C)C(O)=C(C(N)=O)C(=O)[C@@]4(O)C(O)=C2C3=O)cc1C=O [HW] |  |  | < 4 µg/mL | < 4 µg/mL | 
34 | CC(C)N1CCC(Nc2ccc3c(c2O)C(=O)C2=C(O)[C@]4(O)C(=O)C(C(N)=O)=C(O)[C@@H](N(C)C)[C@@H]4C[C@@H]2C3)CC1 | > 4 µg/mL | < 4 µg/mL |  |  | 
35 | CN(C)c1cc(C#Cc2cccc(O)c2)c(O)c2c1C[C@H]1C[C@H]3[C@H](N(C)C)C(O)=C(C(N)=O)C(=O)[C@@]3(O)C(O)=C1C2=O [AJ] |  |  | > 4 µg/mL | < 4 µg/mL | 
36 | CN(C)c1cc(CNC2C[C@H]3CC[C@@H]2C3)c(O)c2c1C[C@H]1C[C@H]3[C@H](N(C)C)C(O)=C(C(N)=O)C(=O)[C@@]3(O)C(O)=C1C2=O (stereo partly drawn) | < 4 µg/mL | < 4 µg/mL |  |  | 
37 | COc1ccc(-c2ccc(O)c3c2C[C@H]2C[C@H]4[C@H](N(C)C)C(O)=C(C(N)=O)C(=O)[C@@]4(O)C(O)=C2C3=O)cc1CN1CCN(CCO)CC1 [KA] |  |  | > 4 µg/mL | < 4 µg/mL | 
38 | CN(C)[C@@H]1C(O)=C(C(N)=O)C(=O)[C@@]2(O)C(O)=C3C(=O)c4c(ccc(N5CCOCC5)c4O)C[C@H]3C[C@@H]12 | > 4 µg/mL | > 4 µg/mL |  |  | 
39 | COc1ccc(CN(C)C)cc1-c1cc(C(C)(C)C)c(O)c2c1C[C@H]1C[C@H]3[C@H](N(C)C)C(O)=C(C(N)=O)C(=O)[C@@]3(O)C(O)=C1C2=O | > 4 µg/mL | < 4 µg/mL |  |  | 
